Columns and labels:
[1] = target: T1, 3-hydroxy-3-methylglutaryl-coenzyme A reductase (Rattus norvegicus) (UniProt P51639); experiment: In vitro inhibition of rat liver HMG-CoA reductase at concentration of 10e-3 M
T1 sequence (whole entry): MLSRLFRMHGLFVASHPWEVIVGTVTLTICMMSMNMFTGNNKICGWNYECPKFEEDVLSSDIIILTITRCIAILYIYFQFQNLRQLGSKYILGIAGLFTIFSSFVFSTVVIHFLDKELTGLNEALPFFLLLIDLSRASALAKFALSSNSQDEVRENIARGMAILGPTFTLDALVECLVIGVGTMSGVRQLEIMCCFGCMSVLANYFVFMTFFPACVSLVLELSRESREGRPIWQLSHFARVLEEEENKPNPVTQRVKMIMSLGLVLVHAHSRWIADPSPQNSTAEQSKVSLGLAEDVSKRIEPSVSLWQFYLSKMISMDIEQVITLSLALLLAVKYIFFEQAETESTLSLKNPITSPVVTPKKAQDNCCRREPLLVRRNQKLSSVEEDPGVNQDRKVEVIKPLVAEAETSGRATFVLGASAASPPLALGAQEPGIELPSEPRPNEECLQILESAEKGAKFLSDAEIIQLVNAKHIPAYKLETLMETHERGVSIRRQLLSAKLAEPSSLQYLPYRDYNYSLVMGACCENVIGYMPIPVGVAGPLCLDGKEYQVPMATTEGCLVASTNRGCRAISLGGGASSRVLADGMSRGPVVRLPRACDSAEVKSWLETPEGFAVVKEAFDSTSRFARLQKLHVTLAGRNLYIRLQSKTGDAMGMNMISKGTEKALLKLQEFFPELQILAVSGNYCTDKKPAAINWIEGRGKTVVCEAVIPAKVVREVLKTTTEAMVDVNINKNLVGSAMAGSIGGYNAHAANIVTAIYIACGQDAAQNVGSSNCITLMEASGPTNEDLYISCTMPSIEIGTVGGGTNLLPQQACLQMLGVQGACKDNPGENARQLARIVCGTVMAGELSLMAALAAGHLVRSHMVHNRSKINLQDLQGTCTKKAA

[2] = target: T2, 3-hydroxy-3-methylglutaryl-coenzyme A reductase (Rattus norvegicus, UniProt P51639); experiment: Inhibition of HMG-CoA reductase from rat liver
T2 sequence (P51639 whole entry): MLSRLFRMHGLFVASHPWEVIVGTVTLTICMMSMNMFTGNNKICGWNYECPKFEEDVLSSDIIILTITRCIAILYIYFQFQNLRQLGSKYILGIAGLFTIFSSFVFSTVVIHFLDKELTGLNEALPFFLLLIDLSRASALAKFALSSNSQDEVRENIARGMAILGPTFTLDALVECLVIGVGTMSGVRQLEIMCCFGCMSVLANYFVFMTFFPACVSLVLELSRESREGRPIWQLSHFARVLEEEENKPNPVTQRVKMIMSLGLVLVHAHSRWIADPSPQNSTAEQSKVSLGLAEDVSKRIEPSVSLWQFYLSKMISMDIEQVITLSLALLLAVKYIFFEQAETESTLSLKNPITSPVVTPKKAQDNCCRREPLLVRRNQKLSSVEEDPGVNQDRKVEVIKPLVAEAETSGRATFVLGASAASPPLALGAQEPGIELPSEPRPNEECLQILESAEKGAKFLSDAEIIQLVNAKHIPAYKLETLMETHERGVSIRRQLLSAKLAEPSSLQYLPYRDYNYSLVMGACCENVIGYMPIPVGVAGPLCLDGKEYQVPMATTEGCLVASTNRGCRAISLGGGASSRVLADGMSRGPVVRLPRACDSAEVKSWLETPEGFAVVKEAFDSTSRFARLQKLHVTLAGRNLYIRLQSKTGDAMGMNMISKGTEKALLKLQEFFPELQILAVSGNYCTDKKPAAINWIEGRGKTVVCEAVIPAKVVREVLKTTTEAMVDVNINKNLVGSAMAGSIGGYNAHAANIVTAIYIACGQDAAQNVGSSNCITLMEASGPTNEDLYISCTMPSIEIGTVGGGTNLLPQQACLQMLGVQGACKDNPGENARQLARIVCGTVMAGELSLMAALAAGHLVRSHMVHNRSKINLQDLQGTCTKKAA

Rattus norvegicus [3] = experiment: Percent reduction of Serum Cholesterol in Triton-treated rat at dose 200 mg/kg by intragastric administration (p<0.01); format: functional
Rattus norvegicus [4] = experiment: Percent reduction of Serum Cholesterol in Triton-treated rat at dose 100 mg/kg by intragastric administration (p<0.01); format: functional
Rattus norvegicus [5] = experiment: Percent reduction of Serum Cholesterol in Triton-treated rat at dose 300 mg/kg by intragastric administration (p<0.01); format: functional
Rattus norvegicus [6] = experiment: Percent reduction of HMGR activity in diazasterol-treated rat at dose 100 mg/kg by intragastric administration (p<0.05); format: functional
Rattus norvegicus [7] = experiment: Percent reduction of HMGR activity in diazasterol-treated rat at dose 20 mg/kg by intragastric administration (p<0.05); format: functional
Rattus norvegicus [8] = experiment: Percent reduction of HMGR activity in diazasterol-treated rat at dose 50 mg/kg by intragastric administration (p<0.05); format: functional
Rattus norvegicus [9] = experiment: Percent reduction of Serum Cholesterol in Triton-treated rat at dose 50 mg/kg by intragastric administration; format: functional
Rattus norvegicus [10] = experiment: Percent reduction of Serum Cholesterol in Triton-treated rat at dose 80 mg/kg by intragastric administration; format: functional
Rattus norvegicus [11] = experiment: Percent reduction of HMGR activity in diazasterol-treated rat at dose 10 mg/kg by intragastric administration; format: functional
[12] = substrate: CCCCCCCCCCCCCCCC(O)(CC(=O)O)CC(=O)O
Description: Competitive inhibition of HMG-CoA reductase

Row | Molecule | inhibition [1] [%] | other results
1 | CCCCCCCCCCCCCCCC1(OC(C)=O)CC(=O)OC(=O)C1 | 9 | –
2 | CCCCCCCCCCC(O)(CC(=O)OCC)CC(=O)OCC | 0 | –
3 | CCCC(O)(CC(=O)O)CC(=O)O | 37 | –
4 | CCCCCCCCCCCCCCCCCCCC(O)(CC(=O)O)CC(=O)O | 86 | IC50 [2]: 350 µM
5 | CCCCCCCCCCCCCCCC(O)(CC(=O)O)CC(=O)OCCN(C)C (stereo not given) | 0 | –
6 | CC(C)C(O)(CC(=O)O)CC(=O)O | 10 | –
7 | CCCCCCCCCCCCCCCC(O)(CC(=O)OCC)CC(=O)OCC | – | Reduction (Rattus norvegicus [3]): 3%
8 | CCCCCCC(O)(CC(=O)O)CC(=O)O | 5 | –
9 | CCCCCCCCCCCCCCCC(O)(CC(=O)OC)CC(=O)OC | 1 | Reduction (Rattus norvegicus [4]): 4%; Reduction (Rattus norvegicus [3]): 4%; Reduction (Rattus norvegicus [5]): 2%
10 | CCCCCCCCCCC(O)(CCO)CCO | 0 | –
11 | CC1(O)CC(=O)OC(=O)C1 | 0 | –
12 | COC(=O)CC(C)(O)CC(N)=O (stereo not given) | 0 | –
13 | CCCCCCCCCCCCCCCC(O)(CC(=O)O)CC(=O)O | 99 | IC50 [2]: 50 µM; Reduction (Rattus norvegicus [4]): 4%; Reduction (Rattus norvegicus [3]): 17%; Reduction (Rattus norvegicus [5]): 22%; Reduction (Rattus norvegicus [6]): 40%; Reduction (Rattus norvegicus [7]): 27%; Reduction (Rattus norvegicus [8]): 31%
14 | CC[C@H](C)C(=O)O[C@H]1CCC=C2C=C[C@H](C)[C@H](CC[C@@H]3C[C@@H](O)CC(=O)O3)[C@H]21 [MEVASTATIN] | – | Reduction (Rattus norvegicus [9]): 17%; Reduction (Rattus norvegicus [10]): 28%; Reduction (Rattus norvegicus [11]): 60%
15 | CCCCCCCCCCCCCCC/C(=C\C(=O)O)CC(=O)O | 0 | –
16 | CC(O)(CC(=O)O)CC(=O)O | 0 | –
17 | CCCCCCCCCCC1(O)CCOC(=O)C1 (stereo not given) | 57 | –
18 | CCOC(=O)CC(C)(O)CC(=O)OCC | 0 | –
19 | CCC(O)(CC(=O)O)CC(=O)O | 29 | –
20 | CC1(O)CC(=O)NC(=O)C1 | 50 | –
21 | CCCCCCCCCCCCCCCC(O)(CCO)CCO | 0 | –
22 | 3-hydroxy-3-methylglutaryl-coenzyme A reductase (Rattus norvegicus), P51639 (protein) MLSRLFRMHGLFVASHPWEVIVGTVTLTICMMSMNMFTGNNKICGWNYECPKFEEDVLSSDIIILTITRCIAILYIYFQFQNLRQLGSKYILGIAGLFTIFSSFVFSTVVIHFLDKELTGLNEALPFFLLLIDLSRASALAKFALSSNSQDEVRENIARGMAILGPTFTLDALVECLVIGVGTMSGVRQLEIMCCFGCMSVLANYFVFMTFFPACVSLVLELSRESREGRPIWQLSHFARVLEEEENKPNPVTQRVKMIMSLGLVLVHAHSRWIADPSPQNSTAEQSKVSLGLAEDVSKRIEPSVSLWQFYLSKMISMDIEQVITLSLALLLAVKYIFFEQAETESTLSLKNPITSPVVTPKKAQDNCCRREPLLVRRNQKLSSVEEDPGVNQDRKVEVIKPLVAEAETSGRATFVLGASAASPPLALGAQEPGIELPSEPRPNEECLQILESAEKGAKFLSDAEIIQLVNAKHIPAYKLETLMETHERGVSIRRQLLSAKLAEPSSLQYLPYRDYNYSLVMGACCENVIGYMPIPVGVAGPLCLDGKEYQVPMATTEGCLVASTNRGCRAISLGGGASSRVLADGMSRGPVVRLPRACDSAEVKSWLETPEGFAVVKEAFDSTSRFARLQKLHVTLAGRNLYIRLQSKTGDAMGMNMISKGTEKALLKLQEFFPELQILAVSGNYCTDKKPAAINWIEGRGKTVVCEAVIPAKVVREVLKTTTEAMVDVNINKNLVGSAMAGSIGGYNAHAANIVTAIYIACGQDAAQNVGSSNCITLMEASGPTNEDLYISCTMPSIEIGTVGGGTNLLPQQACLQMLGVQGACKDNPGENARQLARIVCGTVMAGELSLMAALAAGHLVRSHMVHNRSKINLQDLQGTCTKKAA | – | Km [12]: 8 µM
